Read-outs that look alike come from different tables or passages of the source.
Assays:
Test in all cases: KINOMEscan ScanTK
Format in all cases: binding
[1] = target: T1, TYK2(JH2domain-pseudokinase) (Homo sapiens, UniProt P29597); settings: for difference in %Control versus Ib at 1 µM: read-out: % difference (compound - Ib %Control)
T1 construct: TYK2(JH2domain-pseudokinase); purchased Eurofins DiscoverX KINOMEscan (scanTK)

ERBB2 = target: T2, ERBB2 (Homo sapiens, UniProt P04626); settings: ERBB2
T2 construct: purchased Eurofins DiscoverX KINOMEscan (scanTK)

ALK = target: T3, ALK (Homo sapiens, UniProt Q9UM73)
T3 construct: purchased Eurofins DiscoverX KINOMEscan (scanTK)

SRMS = target: T4, SRMS (Homo sapiens, UniProt Q9H3Y6); settings: SRMS
T4 construct: purchased Eurofins DiscoverX KINOMEscan (scanTK)

TNK1 = target: T5, TNK1 (Homo sapiens, UniProt Q13470)
T5 construct: purchased Eurofins DiscoverX KINOMEscan (scanTK)
T5 sequence (Q13470 1-666): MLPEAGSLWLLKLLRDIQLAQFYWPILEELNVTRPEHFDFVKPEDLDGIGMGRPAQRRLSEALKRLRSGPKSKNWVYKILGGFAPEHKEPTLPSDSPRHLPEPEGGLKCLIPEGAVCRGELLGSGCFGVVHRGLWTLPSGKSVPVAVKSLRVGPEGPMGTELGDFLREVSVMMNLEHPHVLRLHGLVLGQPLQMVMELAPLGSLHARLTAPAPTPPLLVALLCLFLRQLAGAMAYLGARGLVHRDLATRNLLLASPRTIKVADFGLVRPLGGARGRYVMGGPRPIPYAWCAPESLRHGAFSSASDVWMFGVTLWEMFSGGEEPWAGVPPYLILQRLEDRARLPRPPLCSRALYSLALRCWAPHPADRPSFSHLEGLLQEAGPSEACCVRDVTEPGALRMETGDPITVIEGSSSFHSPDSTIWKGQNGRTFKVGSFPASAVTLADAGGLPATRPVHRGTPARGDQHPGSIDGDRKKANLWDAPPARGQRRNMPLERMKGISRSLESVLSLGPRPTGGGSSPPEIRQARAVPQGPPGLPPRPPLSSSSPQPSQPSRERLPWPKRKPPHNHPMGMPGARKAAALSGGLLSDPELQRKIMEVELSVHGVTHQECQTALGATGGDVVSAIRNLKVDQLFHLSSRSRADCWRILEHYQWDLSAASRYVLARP

TXK = target: T6, TXK (Homo sapiens, UniProt P42681)
T6 construct: purchased Eurofins DiscoverX KINOMEscan (scanTK)
T6 sequence (P42681 1-527): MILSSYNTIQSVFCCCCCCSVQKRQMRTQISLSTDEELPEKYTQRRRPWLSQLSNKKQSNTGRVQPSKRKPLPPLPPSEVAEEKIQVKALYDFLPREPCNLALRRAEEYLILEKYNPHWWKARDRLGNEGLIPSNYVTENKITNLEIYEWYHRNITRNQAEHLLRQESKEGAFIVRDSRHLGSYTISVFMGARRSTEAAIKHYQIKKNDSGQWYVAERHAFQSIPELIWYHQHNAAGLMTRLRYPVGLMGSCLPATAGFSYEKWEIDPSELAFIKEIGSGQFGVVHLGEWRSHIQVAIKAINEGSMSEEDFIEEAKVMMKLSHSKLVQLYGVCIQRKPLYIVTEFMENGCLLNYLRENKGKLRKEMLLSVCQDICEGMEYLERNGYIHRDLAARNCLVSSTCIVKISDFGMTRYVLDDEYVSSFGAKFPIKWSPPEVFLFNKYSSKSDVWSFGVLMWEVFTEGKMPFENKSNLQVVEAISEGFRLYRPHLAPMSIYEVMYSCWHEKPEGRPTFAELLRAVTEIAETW

FLT1 = target: T7, FLT1 (Homo sapiens, UniProt P17948)
T7 construct: purchased Eurofins DiscoverX KINOMEscan (scanTK)

TEC = target: T8, TEC (Homo sapiens, UniProt P42680)
T8 construct: purchased Eurofins DiscoverX KINOMEscan (scanTK)
T8 sequence (P42680 1-631): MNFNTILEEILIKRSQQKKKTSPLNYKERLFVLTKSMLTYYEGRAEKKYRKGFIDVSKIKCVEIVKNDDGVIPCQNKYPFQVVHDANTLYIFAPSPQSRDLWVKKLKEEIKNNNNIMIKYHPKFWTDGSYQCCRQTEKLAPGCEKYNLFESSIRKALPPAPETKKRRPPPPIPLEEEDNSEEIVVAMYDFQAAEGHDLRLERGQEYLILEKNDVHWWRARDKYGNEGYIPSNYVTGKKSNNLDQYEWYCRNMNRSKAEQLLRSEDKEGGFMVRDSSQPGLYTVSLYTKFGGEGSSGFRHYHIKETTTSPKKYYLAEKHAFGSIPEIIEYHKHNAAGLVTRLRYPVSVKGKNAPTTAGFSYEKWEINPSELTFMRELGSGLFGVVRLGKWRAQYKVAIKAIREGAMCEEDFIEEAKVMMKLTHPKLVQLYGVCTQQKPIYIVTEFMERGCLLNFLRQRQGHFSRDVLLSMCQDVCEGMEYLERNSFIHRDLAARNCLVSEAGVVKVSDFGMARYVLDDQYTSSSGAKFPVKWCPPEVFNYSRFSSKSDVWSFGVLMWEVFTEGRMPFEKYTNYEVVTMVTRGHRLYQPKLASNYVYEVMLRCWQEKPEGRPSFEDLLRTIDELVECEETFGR

[2] = target: T9, ABL1(E255K)-phosphorylated (Homo sapiens, UniProt P00519, E255K); settings: for difference in %Control from reference Ib at 1 µM: read-out: % difference (compound - Ib %Control)
T9 construct: purchased Eurofins DiscoverX KINOMEscan (scanTK)

LCK = target: T10, LCK (Homo sapiens, UniProt P06239)
T10 construct: purchased Eurofins DiscoverX KINOMEscan (scanTK)

KIT(V559D,T670I) = target: T11, KIT(V559D,T670I) (Homo sapiens, UniProt P10721, T670I/V559D)
T11 construct: purchased Eurofins DiscoverX KINOMEscan (scanTK)

EGFR = target: T12, EGFR (Homo sapiens, UniProt P00533); settings: for difference in %Control versus reference compound Ib at 1 µM / remaining binding at 1 µM: EGFR; for inhibition at 1 µM: ScanTK, WT EGFR
T12 construct: purchased Eurofins DiscoverX KINOMEscan (scanTK)

T11 sequence (P10721 26-976 V559D/T670I): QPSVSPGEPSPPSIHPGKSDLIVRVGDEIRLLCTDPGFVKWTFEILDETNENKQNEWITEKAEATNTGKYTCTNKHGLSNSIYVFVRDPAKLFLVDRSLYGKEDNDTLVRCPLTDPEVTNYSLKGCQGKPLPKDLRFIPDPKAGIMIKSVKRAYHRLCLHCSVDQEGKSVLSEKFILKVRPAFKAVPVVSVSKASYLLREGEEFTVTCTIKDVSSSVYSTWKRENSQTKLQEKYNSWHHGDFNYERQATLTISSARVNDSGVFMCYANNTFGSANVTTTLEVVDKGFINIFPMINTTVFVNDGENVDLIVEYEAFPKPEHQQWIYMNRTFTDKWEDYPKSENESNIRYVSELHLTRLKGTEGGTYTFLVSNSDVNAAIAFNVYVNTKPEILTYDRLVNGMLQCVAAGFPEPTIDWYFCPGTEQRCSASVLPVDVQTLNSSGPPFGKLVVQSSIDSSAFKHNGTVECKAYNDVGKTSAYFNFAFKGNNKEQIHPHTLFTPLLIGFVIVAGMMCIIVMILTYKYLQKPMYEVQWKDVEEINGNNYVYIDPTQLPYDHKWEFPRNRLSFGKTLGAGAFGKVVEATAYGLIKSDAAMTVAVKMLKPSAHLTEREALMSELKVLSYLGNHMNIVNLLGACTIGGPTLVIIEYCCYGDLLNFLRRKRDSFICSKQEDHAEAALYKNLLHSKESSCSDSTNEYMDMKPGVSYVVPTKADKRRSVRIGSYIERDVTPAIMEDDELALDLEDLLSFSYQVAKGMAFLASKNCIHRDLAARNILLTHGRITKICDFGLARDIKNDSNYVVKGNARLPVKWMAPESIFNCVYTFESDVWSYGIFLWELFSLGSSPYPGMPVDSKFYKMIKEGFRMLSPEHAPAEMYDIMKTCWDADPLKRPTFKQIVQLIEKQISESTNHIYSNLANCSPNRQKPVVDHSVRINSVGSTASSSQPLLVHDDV
T10 sequence (P06239 whole entry): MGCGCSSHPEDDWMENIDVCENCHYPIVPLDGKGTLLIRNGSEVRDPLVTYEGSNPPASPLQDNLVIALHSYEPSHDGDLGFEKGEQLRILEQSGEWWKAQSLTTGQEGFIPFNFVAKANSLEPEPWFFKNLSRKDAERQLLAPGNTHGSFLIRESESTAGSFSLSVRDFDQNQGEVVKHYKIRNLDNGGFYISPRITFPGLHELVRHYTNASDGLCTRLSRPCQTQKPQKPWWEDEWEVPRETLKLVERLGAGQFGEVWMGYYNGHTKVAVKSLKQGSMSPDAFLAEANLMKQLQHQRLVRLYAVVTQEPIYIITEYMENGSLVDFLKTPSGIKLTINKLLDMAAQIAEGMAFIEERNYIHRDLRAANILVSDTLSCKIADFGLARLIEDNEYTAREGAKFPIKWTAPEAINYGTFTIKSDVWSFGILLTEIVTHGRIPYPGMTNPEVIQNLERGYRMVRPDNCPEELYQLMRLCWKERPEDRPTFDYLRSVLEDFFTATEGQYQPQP
T3 sequence (Q9UM73 19-1620): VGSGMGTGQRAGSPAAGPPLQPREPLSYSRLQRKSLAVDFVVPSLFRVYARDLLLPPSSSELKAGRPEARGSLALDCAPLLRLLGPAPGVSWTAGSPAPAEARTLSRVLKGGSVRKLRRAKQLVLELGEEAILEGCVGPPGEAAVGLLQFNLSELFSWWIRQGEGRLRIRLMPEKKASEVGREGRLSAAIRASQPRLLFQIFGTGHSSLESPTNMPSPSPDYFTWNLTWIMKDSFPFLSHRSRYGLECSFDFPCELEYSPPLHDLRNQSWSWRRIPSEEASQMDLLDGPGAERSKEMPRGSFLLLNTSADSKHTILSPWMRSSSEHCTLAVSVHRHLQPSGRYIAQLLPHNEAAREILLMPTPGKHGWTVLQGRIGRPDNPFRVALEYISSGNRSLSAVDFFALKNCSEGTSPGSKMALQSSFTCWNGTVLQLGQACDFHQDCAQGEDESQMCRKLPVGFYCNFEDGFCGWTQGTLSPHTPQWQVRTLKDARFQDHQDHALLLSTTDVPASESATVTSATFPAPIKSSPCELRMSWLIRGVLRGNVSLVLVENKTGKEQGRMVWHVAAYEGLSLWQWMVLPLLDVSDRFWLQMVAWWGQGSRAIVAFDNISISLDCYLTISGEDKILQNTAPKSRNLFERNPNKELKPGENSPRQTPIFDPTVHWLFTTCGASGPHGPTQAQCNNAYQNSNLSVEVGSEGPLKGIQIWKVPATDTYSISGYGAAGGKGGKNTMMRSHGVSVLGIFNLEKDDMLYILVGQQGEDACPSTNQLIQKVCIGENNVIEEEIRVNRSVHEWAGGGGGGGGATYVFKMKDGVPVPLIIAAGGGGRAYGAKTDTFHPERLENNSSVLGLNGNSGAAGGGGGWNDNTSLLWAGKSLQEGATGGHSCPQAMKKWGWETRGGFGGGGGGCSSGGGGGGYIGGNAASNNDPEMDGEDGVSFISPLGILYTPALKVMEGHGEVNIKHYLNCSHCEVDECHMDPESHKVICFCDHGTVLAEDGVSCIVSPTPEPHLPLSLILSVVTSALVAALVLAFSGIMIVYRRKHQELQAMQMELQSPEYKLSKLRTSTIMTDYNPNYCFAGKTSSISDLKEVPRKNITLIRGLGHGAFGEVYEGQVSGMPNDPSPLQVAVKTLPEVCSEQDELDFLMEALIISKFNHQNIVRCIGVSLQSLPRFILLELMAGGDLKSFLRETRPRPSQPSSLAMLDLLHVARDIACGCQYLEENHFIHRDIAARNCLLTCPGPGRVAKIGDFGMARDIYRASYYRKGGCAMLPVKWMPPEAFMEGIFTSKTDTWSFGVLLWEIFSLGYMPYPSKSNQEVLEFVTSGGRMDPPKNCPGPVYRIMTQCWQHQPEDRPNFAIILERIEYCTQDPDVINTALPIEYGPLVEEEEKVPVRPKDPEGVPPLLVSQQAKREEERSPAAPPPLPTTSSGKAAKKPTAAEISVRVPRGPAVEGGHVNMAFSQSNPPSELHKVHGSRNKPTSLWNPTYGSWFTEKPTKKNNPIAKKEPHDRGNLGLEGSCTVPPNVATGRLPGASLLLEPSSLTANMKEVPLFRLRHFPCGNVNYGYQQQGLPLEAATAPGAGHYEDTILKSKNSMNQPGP
T4 sequence (Q9H3Y6 whole entry): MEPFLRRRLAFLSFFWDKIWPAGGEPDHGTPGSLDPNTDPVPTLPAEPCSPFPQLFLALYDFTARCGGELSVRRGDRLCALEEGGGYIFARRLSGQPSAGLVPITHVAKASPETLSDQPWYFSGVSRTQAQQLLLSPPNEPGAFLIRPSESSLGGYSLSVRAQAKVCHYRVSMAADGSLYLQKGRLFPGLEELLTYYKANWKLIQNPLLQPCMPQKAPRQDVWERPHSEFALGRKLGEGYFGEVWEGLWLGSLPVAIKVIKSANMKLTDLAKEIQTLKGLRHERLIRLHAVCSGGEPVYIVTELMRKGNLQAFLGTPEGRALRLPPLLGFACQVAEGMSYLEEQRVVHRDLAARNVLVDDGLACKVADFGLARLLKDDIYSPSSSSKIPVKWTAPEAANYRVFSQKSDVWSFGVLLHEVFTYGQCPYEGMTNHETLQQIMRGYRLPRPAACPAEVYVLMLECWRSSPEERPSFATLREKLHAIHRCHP
T1 sequence (P29597 575-869 limits assumed): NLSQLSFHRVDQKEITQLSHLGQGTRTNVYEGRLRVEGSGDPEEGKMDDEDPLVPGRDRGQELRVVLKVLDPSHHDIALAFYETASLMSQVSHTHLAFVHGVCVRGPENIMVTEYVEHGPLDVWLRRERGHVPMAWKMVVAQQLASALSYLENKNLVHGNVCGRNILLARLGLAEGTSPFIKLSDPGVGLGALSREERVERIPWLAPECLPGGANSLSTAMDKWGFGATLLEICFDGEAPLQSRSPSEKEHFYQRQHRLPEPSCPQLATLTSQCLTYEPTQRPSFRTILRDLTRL
T2 sequence (P04626 23-1255): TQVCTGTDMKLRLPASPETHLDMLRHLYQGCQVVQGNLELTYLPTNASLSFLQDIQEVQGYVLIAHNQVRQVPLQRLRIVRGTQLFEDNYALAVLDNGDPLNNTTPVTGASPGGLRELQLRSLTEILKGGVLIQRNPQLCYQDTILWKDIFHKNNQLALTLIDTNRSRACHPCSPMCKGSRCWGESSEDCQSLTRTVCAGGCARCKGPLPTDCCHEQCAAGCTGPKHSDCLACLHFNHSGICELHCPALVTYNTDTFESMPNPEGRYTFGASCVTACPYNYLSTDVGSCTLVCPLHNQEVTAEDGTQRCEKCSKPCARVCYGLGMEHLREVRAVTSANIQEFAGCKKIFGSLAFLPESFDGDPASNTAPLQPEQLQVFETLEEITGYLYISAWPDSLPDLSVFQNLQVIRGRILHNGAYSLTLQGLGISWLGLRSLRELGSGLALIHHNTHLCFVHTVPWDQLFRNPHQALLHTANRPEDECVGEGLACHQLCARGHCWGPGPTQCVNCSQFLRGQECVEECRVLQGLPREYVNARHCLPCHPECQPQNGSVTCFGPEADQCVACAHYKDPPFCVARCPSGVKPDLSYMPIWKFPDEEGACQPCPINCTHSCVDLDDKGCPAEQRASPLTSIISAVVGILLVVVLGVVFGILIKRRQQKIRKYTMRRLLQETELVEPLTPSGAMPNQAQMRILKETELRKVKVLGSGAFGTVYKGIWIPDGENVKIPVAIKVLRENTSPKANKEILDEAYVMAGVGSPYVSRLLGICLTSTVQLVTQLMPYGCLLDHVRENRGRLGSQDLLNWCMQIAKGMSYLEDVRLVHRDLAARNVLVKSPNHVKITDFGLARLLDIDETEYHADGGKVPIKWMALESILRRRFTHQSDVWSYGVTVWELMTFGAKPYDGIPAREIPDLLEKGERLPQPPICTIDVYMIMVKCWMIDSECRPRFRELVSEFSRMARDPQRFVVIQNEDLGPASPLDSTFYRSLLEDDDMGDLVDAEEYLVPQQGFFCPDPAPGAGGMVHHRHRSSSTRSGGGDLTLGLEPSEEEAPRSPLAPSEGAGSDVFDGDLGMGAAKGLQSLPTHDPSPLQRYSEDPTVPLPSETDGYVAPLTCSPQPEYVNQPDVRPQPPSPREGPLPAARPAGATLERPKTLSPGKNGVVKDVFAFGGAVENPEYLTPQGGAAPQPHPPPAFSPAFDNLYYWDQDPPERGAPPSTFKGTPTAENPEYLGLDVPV

| difference in %Control versus Ib at 1 µM ([1]; @1000nM) [%] | remaining binding at 1 µM ([1]; @1000nM, read-out: %Control) [%] | remaining binding at 1 µM ([1]; read-out: %Control @1000nM) [%] | difference in %Control versus compound Ib at 1 µM (ERBB2; @1000nM) [%] | remaining binding at 1 µM (ERBB2; @1000nM, read-out: %Control) [%] | remaining binding at 1 µM (ERBB2; read-out: %Control @1000nM) [%] | difference in %Control versus compound Ib at 1 µM (ALK; @1000nM) [%] | remaining binding at 1 µM (ALK; @1000nM, read-out: %Control) [%] | remaining binding at 1 µM (ALK; read-out: %Control @1000nM) [%] | remaining binding at 1 µM (SRMS; @1000nM, read-out: %Control) [%] | remaining binding at 1 µM (SRMS; read-out: %Control @1000nM) [%] | remaining binding at 1 µM (TNK1; @1000nM, read-out: %Control) [%] | remaining binding at 1 µM (TNK1; read-out: %Control @1000nM) [%] | remaining binding at 1 µM (TXK; @1000nM, read-out: %Control) [%] | remaining binding at 1 µM (TXK; read-out: %Control @1000nM) [%] | difference in %Control from compound Ib at 1 µM (FLT1; @1000nM) [%] | remaining binding at 1 µM (FLT1; @1000nM, read-out: %Control) [%] | remaining binding at 1 µM (FLT1; read-out: %Control @1000nM) [%] | remaining binding at 1 µM (TEC; @1000nM, read-out: %Control) [%] | remaining binding at 1 µM (TEC; read-out: %Control @1000nM) [%] | SMILES | other results |
| --- | --- | --- | --- | --- | --- | --- | --- | --- | --- | --- | --- | --- | --- | --- | --- | --- | --- | --- | --- | --- | --- |
| 12 | 100 | 100 | 48 | 48 | 48 | -25 | 69 | 69 | 32 | 32 | 81 | 81 | 12 | 12 | 28 | 100 | 100 | 53 | 53 | CCOC(=O)c1cnc(S(C)(=O)=O)nc1N1CCC[C@@H](n2nc(-c3ccc(Oc4ccccc4)cc3)c3c(N)ncnc32)C1 [Compound 8c, Ethyl (R)-4-(3-(4-Amino-3-(4-phenoxyphenyl)-1H-pyrazolo[3,4-d]pyrimidin-1-yl)piperidin-1-yl)-2-(methylsulfonyl)pyrimidine-5-carboxylate] | difference in %Control from reference Ib at 1 µM ([2]; @1000nM): 17%; remaining binding at 1 µM ([2]; @1000nM, read-out: %Control): 81%; remaining binding at 1 µM ([2]; read-out: %Control @1000nM): 81%; remaining binding at 1 µM (LCK; @1000nM, read-out: %Control): 25%; remaining binding at 1 µM (LCK; read-out: %Control @1000nM): 25%; difference in %Control versus compound Ib at 1 µM (KIT(V559D,T670I); @1000nM): -34%; remaining binding at 1 µM (KIT(V559D,T670I); @1000nM, read-out: %Control): 34%; remaining binding at 1 µM (KIT(V559D,T670I); read-out: %Control @1000nM): 34%; difference in %Control versus reference compound Ib at 1 µM (EGFR; @1000nM): 42.8%; remaining binding at 1 µM (EGFR; @1000nM, read-out: %Control): 43%; remaining binding at 1 µM (EGFR; read-out: %Control @1000nM): 43%; inhibition at 1 µM (EGFR): 57% |
| 4 | 92 | 92 | 53 | 53 | 53 | -14 | 80 | 80 | 16 | 16 | 91 | 91 | 14 | 14 | 21 | 93 | 93 | 27 | 27 | Cc1cnc(S(C)(=O)=O)nc1N1CCCC(n2nc(-c3ccc(Oc4ccccc4)cc3)c3c(N)ncnc32)C1 (stereo not shown) [Compound 8a, 1-(1-(5-Methyl-2-(methylsulfonyl)pyrimidin-4-yl)piperidin-3-yl)-3-(4-phenoxyphenyl)-1H-pyrazolo[3,4-d]pyrimidin-4-amine] | difference in %Control from reference Ib at 1 µM ([2]; @1000nM): 12%; remaining binding at 1 µM ([2]; @1000nM, read-out: %Control): 76%; remaining binding at 1 µM ([2]; read-out: %Control @1000nM): 76%; remaining binding at 1 µM (LCK; @1000nM, read-out: %Control): 2%; remaining binding at 1 µM (LCK; read-out: %Control @1000nM): 2%; difference in %Control versus compound Ib at 1 µM (KIT(V559D,T670I); @1000nM): 0%; remaining binding at 1 µM (KIT(V559D,T670I); @1000nM, read-out: %Control): 68%; remaining binding at 1 µM (KIT(V559D,T670I); read-out: %Control @1000nM): 68%; difference in %Control versus reference compound Ib at 1 µM (EGFR; @1000nM): 52.8%; remaining binding at 1 µM (EGFR; @1000nM, read-out: %Control): 53%; remaining binding at 1 µM (EGFR; read-out: %Control @1000nM): 53%; inhibition at 1 µM (EGFR): 47% |
